The values below come from US7867979B2, “Drug composition for treating 2 type diabetes and diabetic chronicity complications” (Hainan Deze Drug Research Co., Ltd., priority 2006, dated 2011).

Assay type in all cases: in vivo, Goto-Kakizaki rats (GK)
One assay concerns the target T1, aldose reductase (AR) (Rattus norvegicus, UniProt P07943).
T1 construct: from tissue; host or cells: lens of GK (Goto-Kakizaki) and Wistar rats
Kind of assay: Activity of aldose reductase (AR) of lens in GK rats. The note with it: different ratio experiment, oral daily 12 weeks, specific activity, in U/mg protein; for AR activity of lens NADH (0.1 mmol/L): total 20 mg/kg per Table 3, NADH 0.1 mmol/L system; for AR activity of lens NADPH (0.1 mmol/L): total 20 mg/kg per Table 3, NADPH 0.1 mmol/L system. As for the experimental part:
GK rats control group (n=10); mangiferin groups (10, 30, 200 mg/kg, each group 10 rats); berberine groups (10, 20, 150 mg/kg, each group 10 rats); composition group 1[[mangiferin (10 mg/kg)+berberine (10 mg/kg)], 10 rats]; composition group 2[[mangiferin (200 mg/kg)+berberine (150 mg/kg)], 10 rats]. Wistar rats are normal control group (10 rats). GK rats control group and Wistar rats group were given saline. The other groups were given test drugs. Test samples were administrated orally at the same time every day for 12 weeks. […] At the End of the experiment, the left side lens of rats was taken, then these lenses were added into glycerol and put into refrigerator (−80° C.□) to preserve to determine AR activity. The determination method of AR activity refer to Maragoudakis's method and change slightly, that is: the activity of enzyme is indicated by the record of the absorbance of NADPH in 340 nm decline IOU. […] The second reaction system is 0.1 mmol/L NADH instead of NADPH, the rest of the reagent is same as one of the first response system. The activity of enzyme and the protein content in tissue homogenate are determined at the same time. a unit enzyme activity is indicated by the quantity of the enzyme that produce 1 μmol NADP^+ (or NDA^+) in one minute. […] The results have been calculated as mean±SD ( x±SD) and the comparisons of the data have been done by t-test. There are ten rats in every group. GK rats control group and wistar rats group were given saline. The other groups were given test drugs. Test samples were administrated orally at the same time every day for 12 weeks. The measurements are as same as the above experiment.

Another assay has as its system Propyl dialdehyde (MDA). Kind of assay: Propyl dialdehyde (MDA) in kidney tissue homogenate of GK rats. The note with it: different ratio experiment, oral daily 12 weeks, total 20 mg/kg per Table 3. As for the experimental part: (§1) GK rats control group (n=10); mangiferin groups (10, 30, 200 mg/kg, each group 10 rats); berberine groups (10, 20, 150 mg/kg, each group 10 rats); composition group 1[[mangiferin (10 mg/kg)+berberine (10 mg/kg)], 10 rats]; composition group 2[[mangiferin (200 mg/kg)+berberine (150 mg/kg)], 10 rats]. Wistar rats are normal control group (10 rats). GK rats control group and Wistar rats group were given saline. The other groups were given test drugs. Test samples were administrated orally at the same time every day for 12 weeks. 3.3.1 Preparation of tissue homogenate: Rats were killed by femoral artery bloodletting after administration of the rats for 12-weeks. Kidney tissue of the rats were taken, the blood of kidney tissue were washed with cooling saline (4° C.), then the remnant water was absorbed with filter paper, the kidney tissue was weighed. Per gram kidney tissue was added into 10 ml saline, which was put in homogenized machine (10,000 r/min, 10 seconds, 3rd), 10% tissue homogenate was prepared, the tissue homogenate was centrifuged (4000 r/min) for 10 minutes to get supernatant, the supernatant was saved in −20° C. for determination. 3.3.2.2 Propyl dialdehyde (MDA): MDA is determined by TBA, the test box was bought from Nanjing Jiancheng Bioengineering Research Institute. […] The results have been calculated as mean±SD ( x±SD) and the comparisons of the data have been done by t-test. There are ten rats in every group. GK rats control group and wistar rats group were given saline. The other groups were given test drugs. Test samples were administrated orally at the same time every day for 12 weeks. The measurements are as same as the above experiment.

Another assay has as its system diabetic GK rats. Kind of assay: Blood glucose and lipid in GK rats. The settings on record: different ratio experiment; GK rats, high fat diet, oral daily 12 weeks, total 20 mg/kg per Table 3. An excerpt:
The GK (Goto-Kakizaki) rat is the spontaneous model of diabetes, the pathogenesis of GK rat is very similar to the pathogenesis of type 2 diabetes. After diabetes attack, hyperglycemia and insulin secretion weakened emerge rapidly, the latter diseases may be complicated by retinopathy, micro-vascular disease, neuropathy, nephropathy in GK rat. The GK rats have been widely used in type 2 diabetes study, so we choose GK rat as the animal model of the following experiment. […] Then they can be mixed or diluted in accordance with the dose and the ratio. 1.3 Goto-Kakizaki rats (GK) (4 months age, ♀♂) and Wistar rats (SPF level, ♀♂) were purchased from Shanghai SLAC laboratory animal Co., Ltd. In addition to the normal rats, the other rats were fed with high fat diet (20% protein and 3.5% cholesterol). After the rats was feeding adaptation for one week, The GK rats which the blood glucose level was more than 11.1 mmol/L were selected, and then divided into the following groups random: GK rats control group (n=10); mangiferin groups (10, 30, 200 mg/kg, each group 10 rats); berberine groups (10, 20, 150 mg/kg, each group 10 rats); composition group 1[[mangiferin (10 mg/kg)+berberine (10 mg/kg)], 10 rats]; composition group 2[[mangiferin (200 mg/kg)+berberine (150 mg/kg)], 10 rats]. Wistar rats are normal control group (10 rats). GK rats control group and Wistar rats group were given saline. The other groups were given test drugs. Test samples were administrated orally at the same time every day for 12 weeks. 3.1 Blood Glucose and lipid: The blood specimens were taken at the end of the test. Plasma glucose (GLU), triglycerides (TG), total cholesterol (TC) were determined by HITACHI7080 automatic biochemistry analyzer. […] The results have been calculated as mean±SD ( x±SD) and the comparisons of the data have been done by t-test. […] Mangiferin and berberine are prepared in accordance with the method of preparation of example 1 and 2. Then they can be mixed in accordance with the dose and the ratio such as table 3. 1.2 Animal: Goto-Kakizaki rats (GK) (4 months age, ♀♂) and Wistar rats (SPF level, ♀♂) were purchased from Shanghai SLAC laboratory animal Co., Ltd. In addition to the normal rats, the other rats were fed with high fat diet (20% protein and 3.5% cholesterol). After the rats was feeding adaptation for one week, GK rats that the blood glucose level of the GK rats was more than 11.1 mmol/L were selected, and then random divided into the following groups as follows (Table 3): There are ten rats in every group. GK rats control group and wistar rats group were given saline. The other groups were given test drugs. Test samples were administrated orally at the same time every day for 12 weeks. The measurements are as same as the above experiment.

For assay [1], the system named is Superoxidedismutase (SOD). Kind of assay: Superoxidedismutase (SOD) in kidney tissue homogenate of GK rats. The settings on record: different ratio experiment, oral daily 12 weeks, total 20 mg/kg per Table 3. As for the experimental part: as §1, with “[…] SOD” for “3.3.2.2 Propyl dialdehyde (MDA): MDA”, “Xanthine Oxidase calorimetric analysis,” for “TBA,”

Turning to `COc1ccc2cc3[n+](cc2c1OC)CCc1cc2c(cc1-3)OCO2` [Composition H], on aldose reductase (AR), the “AR activity of lens NADH (0.1 mmol/L)” value was found to be 1.39 ± 0.53 and the “AR activity of lens NADPH (0.1 mmol/L)” value is 2.48 ± 0.58. The “Measurements about oxidation MDA” value with Propyl dialdehyde (MDA) is 3.52 ± 0.77 nmol/mg pro. Moreover, in the assay on diabetic GK rats, the GLU is 12.34 ± 2.09 mmol/L, the “Lipid TC” value was 3.33 ± 0.26 mmol/L and the “Lipid TG” value is on record as 2.91 ± 0.09 mmol/L. The “Measurements about oxidation SOD” value in assay [1] was determined as 171.10 ± 13.81 U/mg pro.
Regarding `O=c1c2cc(O)c(O)cc2oc2cc(O)c(C3OC(CO)C(O)C(O)C3O)c(O)c12` (centres unmarked) [Composition A], at aldose reductase (AR), the “AR activity of lens NADH (0.1 mmol/L)” value was 1.97 ± 0.46 and the “AR activity of lens NADPH (0.1 mmol/L)” value is 3.11 ± 0.56. In addition, in the assay with Propyl dialdehyde (MDA), the “Measurements about oxidation MDA” value came to 3.43 ± 0.89 nmol/mg pro. Further, in the assay on diabetic GK rats, the GLU came to 14.11 ± 2.03 mmol/L, the “Lipid TC” value came out at 3.26 ± 0.26 mmol/L and the “Lipid TG” value turned out to be 2.79 ± 0.30 mmol/L. For the same compound, the “Measurements about oxidation SOD” value in assay [1] was determined as 168.26 ± 13.50 U/mg pro.
